Paper PMC11992225, “Antibacterial compounds against non-growing and intracellular bacteria” (npj Antimicrobials and Resistance, 2025)
≈ marks a conversion by molar mass, not a printed value. Like-named read-outs stand apart in the source and are kept apart here.

Columns and labels:
E. coli CFT073 (UPEC) = test: MIC, standard microdilution assay, growing UPEC; assay type: cell-based, Escherichia coli; conditions: E. coli; for MIC (μM) CA-MHB +PAβN: CA-MHB with 10 μg/ml efflux pump inhibitor PaβN
Protocol: (§1) Minimal inhibitory concentrations (MICs) were determined using a standard microdilution assay protocol. CA-MHB medium buffered with 40 mM HEPES (pH 7.4) was used to determine the MICs for UPEC, P. aeruginosa, and S. aureus. […] MICs for UPEC were also determined in LPM buffered with 30 mM MES (pH 5.5). For S. flexneri, MICs were determined in tryptic soy broth (TSB). The assay was performed in triplicates.

P. aeruginosa DSM1117 = test: MIC, standard microdilution assay, growing P. aeruginosa; assay type: cell-based, Pseudomonas aeruginosa; conditions: Pseudomonas aeruginosa, DSM1117; P. aeruginosa; CA-MHB pH 7.4; read-out: MIC (μM) CA-MHB
Protocol: as §1

S. aureus DSM2569 = test: MIC, standard microdilution assay, growing S. aureus; assay type: cell-based, Staphylococcus aureus; conditions: Staphylococcus aureus, DSM2569; S. aureus; CA-MHB pH 7.4; read-out: MIC (μM) CA-MHB
Protocol: as §1

S. flexneri 5a M90T = test: MIC in tryptic soy broth, S. flexneri; assay type: cell-based, Shigella flexneri; conditions: Shigella flexneri, 5AM90T, read-out: MIC (μM) TSB
Protocol: as §1

[1] = tested on: non-growing S. aureus DSM2569; test: Dose-dependent killing analysis (CFU spot-plating) of stationary-phase S. aureus;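 also: drug concentration in µM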; assay type: cell-based, Staphylococcus aureus; conditions: S. aureus, vs 9,097 before treatment
Protocol: To determine the spectrum of activity of the compounds that were effective against non-growing UPEC, we further assessed their efficacy against the well-characterized Gram-negative and Gram-positive reference strains P. aeruginosa DSM1117 and S. aureus DSM2569, respectively. The cultures were grown and treated for 24 h in 1:4 CA-MHB (pH 7.4). […].
For survival analysis, bacteria were cultivated as described for the dose–response dilution-regrowth assay. Assays with UPEC were conducted at the CBCS screening facility using 96-well plates with a 200 μl sample volume, and compounds were dispensed using the Echo® (Labcyte) system. P. aeruginosa and S. aureus samples were treated according to the protocol used for the dilution-regrowth experiments. Treated samples were serially diluted 10-fold in PBS, and 10 μl drops were spot-plated onto rectangular LB agar plates using either a Beckman NXP robot (for UPEC) or an Integra VIAFLO96 electronic pipette (for P. aeruginosa and S. aureus). The LB agar plates were incubated overnight at 37 °C and scanned. Colonies were counted at the spots of the lowest dilution where individual colonies could be accurately distinguished. Each colony was manually marked on a separate image layer using the GNU Image Manipulation Program, and counted using NIST’s Integrated Colony Enumerator (NICE 1.4) software. The experiments were performed in three biological replicates.

[2] = tested on: intracellular S. flexneri 5a M90T in TC7 cells; test: microbe, parasite or virus in culture; assay type: cell-based, Shigella flexneri; conditions: for IC50: Shigella flexneri, TC7, 14 h; for Fluorescence intensity (RFU), Mean, 0.0625 x MIC / Fluorescence intensity (RFU), Mean, 0.125 x MIC / Fluorescence intensity (RFU), Mean, 0.25 x MIC / Fluorescence intensity (RFU), Mean, 0.5 x MIC / Fluorescence intensity (RFU), Mean, 2 x MIC / Fluorescence intensity (RFU), Mean, MIC: TC7 cells infected with GFP-expressing S. flexneri, 14 h treatment
Source text: Nonproliferating bacterial pathogens frequently inhabit intracellular environments, but establishing relevant infection models for high-throughput testing is challenging. Therefore, we firstly tested ability of the hit compounds to cross the eukaryotic cytoplasmic membrane barrier and inhibit growth of S. flexneri within the cytoplasm of the TC7 human colon adenocarcinoma cell line[59]. To this end, we developed a new, fluorescence-based method that enables real-time monitoring of growth of intracellular Shigella. We used S. flexneri 5a M90T strain producing the AfaE adhesin that enhances bacterial adhesion to epithelial cells and allows synchronization of invasion. The strain was further modified to constitutively express super-folder GFP (sfGFP), which enables monitoring bacterial growth by fluorescence measurement. The epithelial cells were grown to confluence and infected with bacteria at an MOI (multiplicity of infection) of 50. […] Following bacterial adhesion and invasion, the cells were incubated with varying concentrations of the hit compounds and intracellular bacterial growth was tracked by measuring green fluorescence.
The cells were split using trypsin, seeded in 96-well plates for infection, and grown to confluence, corresponding to approximately 40,000 cells per well.
A single colony of S. flexneri was inoculated into TSB supplemented with 50 μg/ml spectinomycin and incubated overnight at 37°C with agitation. The overnight culture was diluted 1:200 in fresh TSB, and the bacteria were grown at 37 °C until the OD600 reached 0.3–0.4, corresponding to approximately 2 × 10^7 CFU/ml. Bacteria were pelleted by centrifugation, washed twice with sterile PBS, and resuspended in infection solution (serum-free DMEM supplemented with 20 mM HEPES, pH 7.4). Just prior to infection, the medium was withdrawn, and the cells were washed twice with sterile PBS. The bacterial inoculum (MOI 50, 2 × 10^7 CFU/ml) was added to all wells except the no-infection control. The plates were incubated at room temperature for 15 min to allow bacterial adhesion, followed by a 1 h incubation at 37 °C with 5% CO2 to facilitate bacterial invasion.
Twofold serial dilutions of the drugs were prepared in infection solution containing 50 μg/ml gentamicin in a 96-well plate. After the invasion period, the bacterial inoculum was removed, and the serial dilutions of the drugs were added to the wells, except for the no-drug control. […] […] The experiments were performed in triplicates on separate days.
(§2) Statistical significance of the drug effects was assessed using a one-way ANOVA followed by Dunnett’s test, comparing each treatment to the drug-free control. Statistical significance of the differences in chemical characteristics between the hit compounds and the Prestwick library was assessed using a Mann–Whitney test. Statistical significance was set at P ≤ 0.05. A five-parameter logistic equation was used for asymmetric sigmoidal curve fitting and for EC50 and IC50 determination. The Venn diagram in Fig. 1F was prepared using BioVenn web application. Characteristics of the chemical and physical properties of Prestwick library compounds were obtained from Supplementary Table S1 from reference. Characteristics of the hit compounds not included in the Prestwick library were retrieved from the PubChem database.

non-growing UPEC CFT073 = test: Dilution-regrowth assay (screen, hit validation, dose-response) on stationary-phase UPEC; assay type: cell-based, Escherichia coli; conditions: at 0.5 µM
Protocol: The cultures were incubated for 24 h in non-baffled Erlenmeyer flasks at 37 °C with shaking at 200 rpm.
The high-throughput screening (HTS) procedure was based on the protocol by Hazan and colleagues[15] and conducted at the Chemical Biology Consortium Sweden (CBCS) screening facility. […] Each plate included eight wells with 200 nl of 10 mM gatifloxacin, finafloxacin, and kanamycin solutions, along with 8-wells containing 200 nl of DMSO as controls. After 24 h incubation,100 μl of the culture was dispensed into each well of the 384-well plates for screening at a final concentration of 20 μM. The plates were sealed with parafilm and incubated at 37 °C for 24 h in closed humidified boxes, with wet paper towels added to prevent evaporation. […] The plates were incubated at 37 °C for 6 h in humidified boxes, then OD600 was measured using a microplate reader.
For hit validation, bacteria were cultivated, and the dilution-regrowth assay was conducted following the same protocol used in the primary screen. Hit compounds were dispensed into 384-well plates using the Echo® (Labcyte) system, with 200, 100, or 50 nl of a 10 mM solution in DMSO added per well, yielding final screening concentrations of 20, 10, and 5 μM, respectively. OD600 values of regrowing samples were normalized to the mean OD600 of the drug-free control. The testing was conducted in two replicates.
For UPEC, dose–response analysis was conducted at the CBCS screening facility. Bacteria were cultivated, and the dilution-regrowth assay was performed according to the HTS protocol. Compounds were dispensed into 384-well plates using the Echo® (Labcyte) system, and regrowth was assessed by measuring OD600 after 6 h of incubation at 37 °C in humidified boxes. Three biological replicates were performed.
as §2

[3] = Escherichia coli, pH 7.4, 1:4 diluted CA-MHB, read-out: MIC (μM) 1:4 CA-MHB
[4] = Escherichia coli, pH 7.4, CA-MHB, read-out: MIC (μM) CA-MHB

| Structure (SMILES) | MIC (μM) CA-MHB +PAβN (E. coli CFT073 (UPEC); pH 7.4) | MIC (E. coli CFT073 (UPEC); [3]) | MIC (E. coli CFT073 (UPEC); [4]) | MIC (P. aeruginosa DSM1117) | MIC (S. aureus DSM2569) | MIC (S. flexneri 5a M90T) | IC50 [2] | Fluorescence intensity (RFU), Mean, 0.0625 x MIC [2] | Fluorescence intensity (RFU), Mean, 0.125 x MIC [2] | Fluorescence intensity (RFU), Mean, 0.25 x MIC [2] | Fluorescence intensity (RFU), Mean, 0.5 x MIC [2] | Fluorescence intensity (RFU), Mean, 2 x MIC [2] | Fluorescence intensity (RFU), Mean, MIC [2] | also measured |
| --- | --- | --- | --- | --- | --- | --- | --- | --- | --- | --- | --- | --- | --- | --- |
| CO[C@@H]1[C@@H](O[C@@H]2O[C@H](C)[C@@H](O[C@H]3C[C@@](C)(O)[C@@H](OC(=O)CC(C)C)[C@H](C)O3)[C@H](N(C)C)[C@H]2O)[C@@H](CC=O)C[C@@H](C)[C@@H](O)/C=C/C=C/C[C@@H](C)OC(=O)C[C@H]1OC(C)=O [Josamycin] | 40 µM (≈ 33.1 µg/mL) | 80 µM (≈ 66.2 µg/mL) | 80 µM (≈ 66.2 µg/mL) | > 160 µM | 2 µM (≈ 1.66 µg/mL) | 128 µM (≈ 106 µg/mL) | 34.3 µM | 8835.42 RFU | 7817.11 RFU | 5830.67 RFU | 2645.69 RFU | 1478.33 RFU | 1710.25 RFU | average Δlog10(CFU/ml) (killing) ([1]; drug conc. 0.1): 0.030 log10(CFU/ml); average Δlog10(CFU/ml) (killing) ([1]; drug conc. 0.5): 0.110 log10(CFU/ml); average Δlog10(CFU/ml) (killing) ([1]; drug conc. 2.5): 0.195 log10(CFU/ml); average Δlog10(CFU/ml) (killing) ([1]; drug conc. 10): 0.084 log10(CFU/ml); MIC:IC50 ratio ([2]; S. flexneri MIC in TSB versus intracellular IC50): > 2 |
| CCC(=O)O[C@@H]1CC(=O)O[C@H](C)C/C=C/C=C/[C@H](O)[C@H](C)C[C@H](CC=O)[C@H](O[C@@H]2O[C@H](C)[C@@H](O[C@H]3C[C@@](C)(O)[C@@H](OC(=O)CC)[C@H](C)O3)[C@H](N(C)C)[C@H]2O)[C@H]1OC [Midecamycin] | 160 µM (≈ 130 µg/mL) | 160 µM (≈ 130 µg/mL) | > 160 µM | > 160 µM | 2 µM (≈ 1.63 µg/mL) | 128 µM (≈ 104 µg/mL) | 91 µM | 9401.53 RFU | 9631.81 RFU | 8761.75 RFU | 6972.36 RFU | 1708.61 RFU | 3717.14 RFU | MIC (E. coli CFT073 (UPEC); pH 7.4, CA-MHB, read-out: MIC (μM) CA-MHB): >160 µM; MIC (E. coli CFT073 (UPEC); Escherichia coli, LPM pH 5.5, read-out: MIC): 160 µM (≈ 130 µg/mL); UPEC regrowth delay (non-growing UPEC CFT073): effectively delays UPEC regrowth |
